Here are results for 4 compounds from PMC12485664, “Interaction of class III cellobiose dehydrogenase with lytic polysaccharide monooxygenase” (FEBS Open Bio, 2025).

Molecules are shown by their SMILES.

As usually defined, the Km is the substrate concentration at which the rate is half of its maximum.

Assay [1] relates to T1, FsCDH (class III cellobiose dehydrogenase).
T1 construct: gene CDH; flavocytochrome with cytochrome and dehydrogenase domains; recombinant secreted in Komagataella phaffii, FPLC purified
The assay can be described thus: DCIP reduction, plate reader, Michaelis-Menten fit. It is filed as biochemical, Fusarium solani. To be noted: 0.3 mM DCIP, 50 mM potassium phosphate pH 6.0. The source says: DCIP reduction, plate reader, Michaelis-Menten fit on FsCDH (class III cellobiose dehydrogenase)

Assay [2] deals with T2, NcAA9C (NcLPMO9C) (Neurospora crassa, UniProt Q7SHI8).
T2 construct: gene gh61-3; recombinant secreted in Komagataella phaffii, FPLC purified; copper enzyme, C4-acting
T2 sequence (Q7SHI8 17-359): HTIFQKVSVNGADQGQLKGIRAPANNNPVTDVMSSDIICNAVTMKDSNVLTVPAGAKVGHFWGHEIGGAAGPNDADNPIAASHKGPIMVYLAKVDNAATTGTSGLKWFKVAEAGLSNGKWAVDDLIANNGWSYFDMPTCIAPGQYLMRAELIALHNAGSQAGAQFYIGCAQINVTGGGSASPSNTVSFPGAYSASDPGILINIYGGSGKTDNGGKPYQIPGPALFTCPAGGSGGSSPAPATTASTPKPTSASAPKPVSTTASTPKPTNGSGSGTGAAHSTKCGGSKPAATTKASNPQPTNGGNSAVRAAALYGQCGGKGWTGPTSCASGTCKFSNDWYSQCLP
Nature of the assay: batch conversion, RDE H2O2 consumption, HPAEC-PAD and MALDI-TOF-MS of products. It is filed as biochemical. The note with it: H2O2 cosubstrate, 5 mM ascorbic acid, 30 mM sodium acetate pH 5.0, 100 mM KCl.

Consider `OC[C@H]1OC(O)[C@H](O)[C@@H](O)[C@@H]1O[C@@H]1O[C@H](CO)C(O)(O)[C@H](O)[C@H]1O` (stereo partly shown) [Glc4gemGlc], for which the Km in assay [1] (sample not treated with β-glucosidase, 1 to 100 μM) stood at 30.6 ± 8.3 µM.
Take `OC[C@H]1O[C@@H](O[C@H]2[C@H](O)[C@@H](O)C(O)O[C@@H]2CO)[C@H](O)[C@@H](O)[C@@H]1O` (stereo partly shown) [cellobiose]: in assay [1], the Km came out at 21.4 ± 3 µM.
As for `OC[C@H]1O[C@@H](O[C@H]2[C@H](O)[C@@H](O)[C@H](O[C@H]3[C@H](O)[C@@H](O)[C@H](O[C@H]4[C@H](O)[C@@H](O)[C@H](O[C@H]5[C@H](O)[C@@H](O)C(O)O[C@@H]5CO)O[C@@H]4CO)O[C@@H]3CO)O[C@@H]2CO)[C@H](O)[C@@H](O)[C@@H]1O` (stereo partly shown) [cellopentaose], the “batch conversion, RDE H2O2 consumption, HPAEC-PAD and MALDI-TOF-MS of products” value in assay [2] is on record as “a batch reaction employing NcAA9C, H2O2 as cosubstrate”.
For `OC[C@H]1O[C@@H](O[C@H]2[C@H](O)[C@@H](O)[C@H](O[C@H]3[C@H](O)[C@@H](O)C(O)O[C@@H]3CO)O[C@@H]2CO)[C@H](O)[C@@H](O)[C@@H]1O` (stereo partly shown) [cellotriose], the Michaelis-Menten constant (Km) in assay [1] was 16.1 ± 2.9 µM.
